“Also recorded” adds a separate entry of the source.
Columns and labels:
[1] = molecular target: T1, Aβ fibrils (Homo sapiens, UniProt P05067); assay: Analysis of binding property using QCM apparatus, sensor with Aβ fibrils fixed (Test Example 3); settings: final concentration 10 μM in PBS
T1 construct: Aβ oligomers or Aβ fibrils were fixed to the sensor portion of the QCM apparatus
Protocol: (§1) Aβ oligomers or Aβ fibrils were fixed to the sensor portion of the QCM apparatus, and immersed in PBS in a glass container. Subsequently, Compound 8 or Compound 1 was added thereto to a final concentration of 10 μM, and a frequency change was recorded from immediately after the addition.

[2] = molecular target: Aβ oligomers (Homo sapiens, UniProt P05067); assay: Analysis of binding property using QCM apparatus, sensor with Aβ oligomers fixed (Test Example 3); settings: final concentration 10 μM in PBS
Sequence of Aβ oligomers (P05067 672-713 limits assumed): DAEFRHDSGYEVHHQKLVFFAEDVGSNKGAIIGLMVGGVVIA
Protocol: as §1

[3] = molecular target: T2, senile plaques (Homo sapiens, UniProt P05067); assay: 19F-MR image measurement of the brain after tail vein injection (Test Example 1); assay type: in vivo, mouse; settings: 200 mg/kg tail vein, three-hour measurement beginning five hours after injection, 7T
T2 construct: Spots of amyloid β, which forms senile plaques; tissue Jackson Laboratory; host or cells: brain of live APP/PS1 double transgenic mice
T2 sequence (P05067 672-713 limits assumed): as above
Protocol: Compound 1 was weighed out in an amount of 10 mg, and 0.125 ml of 80% Tween-80 was added thereto, followed by dissolution using a glass rod under heating. Subsequently, 0.875 ml of physiological saline was added thereto to prepare a solution for injection (10 mg/ml). The solution was injected in a total amount of 200 mg/kg at […] to the tail vein of each of the genetically modified model mice of Alzheimer's disease (APP/PS1) and the normal wild mice (Wild), which had been subjected to pentobarbital sodium anesthesia. As the genetically modified model mice of Alzheimer's disease (APP/PS1), amyloid precursor protein and presenilin 1 double transgenic mice (APP/PS1, purchased from Jackson Laboratory and bred) were used. After the completion of the injection, under anesthesia, the head of each mouse was continuously evaluated every hour using an MRI apparatus, and all data were added to form images. The brain image of ^19F-MRI was obtained according to the chemical shift imaging method (CSI method). As the MRI apparatus, a 7T Unity Inova MR Scanner (produced by Varian Medical System) was used. Each of the genetically modified model mice of Alzheimer's disease (APP/PS1) and normal wild mice (Wild) were injected with Compound 1. […] FIGS. 1A and 1C are ^19F-MRI images, and FIGS. 1B and 1D are composite photos of ^19F-MRI and ^1H-MRI images.

T1 sequence (P05067 672-713 limits assumed): as above

19F-MR signals presumed to be senile plaques inside of the brain ([3]; normal wild mouse (Wild))	Structure (SMILES)	binding to Aβ fibrils (conclusion from QCM) [1]	binding to Aβ oligomers (conclusion from QCM) [2]	19F-MR signals presumed to be senile plaques inside of the brain ([3]; genetically modified model mice of Alzheimer's disease (APP/PS1))	QCM frequency change, sensor with Aβ fibrils fixed (Fibrillar) compared to Control [1]
such signals were not detected	CN(C)c1ccc(/C=C/c2nc3ccc(OCCOCCOCCOCCOCCOCCOCCOCC(F)(F)F)cc3o2)cc1 [Compound 1, 6-(3′,6′,9′,12′,15′,18′,21′-heptaoxa-23′,23′,23′-trifluorotricosanyloxy)-2-(4′-dimethylaminostyryl)benzoxazole]	binds to Aβ fibrils	does not bind to Aβ oligomers	signals presumed to be senile plaques were detected inside of the brain	–
–	COC(=O)CCC(C(=O)/C=C/c1ccc(O)c(OC(F)(F)F)c1)C(=O)/C=C/c1ccc(O)c(OC(F)(F)F)c1 [Compound 8]	binding to both Aβ oligomers and Aβ fibrils	binding to both Aβ oligomers and Aβ fibrils	–	significant frequency reduction; also recorded: frequency reduction was observed
